Source: patent publication US20050038074A1, “Mitotic kinesin inhibitors” (priority 2003, published 2005)

target: T1, human KSP motor domain (KSP(367H)) (Homo sapiens, UniProt P52732); assay: Kinesin ATPase In Vitro Assay; type: biochemical; details: kinesin motor domain with microtubules, 1 mM ATP, 23° C.; free phosphate by quinaldine red/ammonium molybdate
T1 construct: were used to amplify the motor domain and the neck linker region; made in house; host or cells: E. coli BL21 (DE3)
T1 sequence (P52732 18-359 limits assumed): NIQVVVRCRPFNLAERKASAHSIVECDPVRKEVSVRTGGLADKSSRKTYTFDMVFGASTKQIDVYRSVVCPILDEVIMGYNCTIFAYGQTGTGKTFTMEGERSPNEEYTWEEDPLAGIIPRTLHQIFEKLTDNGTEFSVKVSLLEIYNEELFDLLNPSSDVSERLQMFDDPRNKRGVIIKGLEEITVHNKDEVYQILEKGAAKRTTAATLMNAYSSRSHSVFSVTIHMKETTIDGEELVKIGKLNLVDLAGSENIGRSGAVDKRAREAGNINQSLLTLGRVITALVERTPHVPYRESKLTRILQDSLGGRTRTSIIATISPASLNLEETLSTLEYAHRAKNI
Excerpt: I. Kinesin ATPase In Vitro Assay
Cloning and Expression of Human Poly-Histidine Tagged KSP Motor Domain (KSP(367H))
Plasmids for the expression of the human KSP motor domain construct were cloned by PCR using a pBluescript full length human KSP construct (Blangy et al., Cell, vol.83, pp1159-1169, 1995) as a template. The N-terminal primer 5′-[…] (SEQ.ID.NO.: 1) and the C-terminal primer 5′-[…] […] (SEQ.ID.NO.: 2) were used to amplify the motor domain and the neck linker region. The PCR products were digested with AseI and XhoI, ligated into the NdeI/XhoI digestion product of pRSETa (Invitrogen) and transformed into E. coli BL21 (DE3).
Cells were grown at 37° C. to an OD600 of 0.5. After cooling the culture to room temperature expression of KSP was induced with 100 μM IPTG and incubation was continued overnight. Cells were pelleted by centrifugation and washed once with ice-cold PBS. Pellets were flash-frozen and stored −80° C.
Cell pellets were thawed on ice and resuspended in lysis buffer (50 mM K-HEPES, pH 8.0, 250 mM KCl, 0.1% Tween, 10 mM imidazole, 0.5 mM Mg-ATP, 1 mM PMSF, 2 mM benzimidine, 1× complete protease inhibitor cocktail (Roche)). Cell suspensions were incubated with 1 mg/ml lysozyme and 5 mM β-mercaptoethanol on ice for 10 minutes, followed by sonication (3×30 sec). All subsequent procedures were performed at 4° C. Lysates were centrifuged at 40,000×g for 40 minutes. Supernatants were diluted and loaded onto an SP Sepharose column (Pharmacia, 5 ml cartridge) in buffer A (50 mM K-HEPES, pH 6.8, 1 mM MgCl2, 1 mM EGTA, 10 μM Mg-ATP, 1 mM DTT) and eluted with a 0 to 750 mM KCl gradient in buffer A. Fractions containing KSP were pooled and incubated with Ni-NTA resin (Qiagen) for one hour. The resin was washed three times with buffer B (Lysis buffer minus PMSF and protease inhibitor cocktail), followed by three 15-minute incubations and washes with buffer B. Finally, the resin was incubated and washed for 15 minutes three times with buffer C (same as buffer B except for pH 6.0) and poured into a column. KSP was eluted with elution buffer (identical to buffer B except for 150 mM KCl and 250 mM imidazole). KSP-containing fractions were pooled, made 10% in sucrose, and stored at −80° C.
Microtubules are prepared from tubulin isolated from bovine brain. Purified tubulin (>97% MAP-free) at 1 mg/ml is polymerized at 37° C. in the presence of 10 JAM paclitaxel, 1 mM DTT, 1 mM GTP in BRB80 buffer (80 mM K-PIPES, 1 mM EGTA, 1 mM MgCl2 at pH 6.8). The resulting microtubules are separated from non-polymerized tubulin by ultracentrifugation and removal of the supernatant. The pellet, containing the microtubules, is gently resuspended in 10 μM paclitaxel, 1 mM DTT, 50 μg/ml ampicillin, and 5 μg/ml chloramphenicol in BRB80.
The kinesin motor domain is incubated with microtubules, 1 mM ATP (1:1 MgCl2: Na-ATP), and compound at 23° C. in buffer containing 80 mM K-HEPES (pH 7.0), 1 mM EGTA, 1 mM DTT, 1 mM MgCl2, and 50 mM KCl. The reaction is terminated by a 2-10 fold dilution with a final buffer composition of 80 mM HEPES and 50 mM EDTA. Free phosphate from the ATP hydrolysis reaction is measured via a quinaldine red/ammonium molybdate assay by adding 150 μl of quench C buffer containing a 2:1 ratio of quench A:quench B. Quench A contains 0.1 mg/mil quinaldine red and 0.14% polyvinyl alcohol; quench B contains 12.3 mM ammonium molybdate tetrahydrate in 1.15 M sulfuric acid. The reaction is incubated for 10 minutes at 23° C., and the absorbance of the phospho-molybdate complex is measured at 540 nm.

| SMILES | IC50 [µM] |
| --- | --- |
| CN(C(=O)N1CC(c2cc(F)ccc2F)=C[C@@]1(CO)c1ccccc1)[C@H]1CC[N+](C)([O-])C[C@H]1F (stereo partly drawn) [Compound 9-1, (2S)-4-(2,5-Difluorophenyl)-N-[(3R,4S)-3-fluoro-1-methyl-1-oxidopiperidin-4-yl]-2-(hydroxymethyl)-N-methyl-2-phenyl-2,5-dihydro-1H-pyrrole-1-carboxamide] | ≤ 50 |
| CN(C(=O)N1CC(c2cc(F)ccc2F)=C[C@@]1(CO)c1ccccc1)C1CCNCC1F (stereo in doubt) [Compound 10-2, (2S)-4-(2,5-Difluorophenyl)-N-[(3S,4R)-3-fluoropiperidin-4-yl]-2-(hydroxymethyl)-N-methyl-2-phenyl-2,5-dihydro-1H-pyrrole-1-carboxamide] | ≤ 50 |
| CN1CC[C@@H](N(C)C(=O)N2CC(c3cc(F)ccc3F)=C[C@H]2c2ccccc2)[C@@H](F)C1 [Compound 7-2, (2S)-4-(2,5-Difluorophenyl)-N-[(3S,4R)-3-fluoro-1-methylpiperidin-4-yl]-N-methyl-2-phenyl-2,5-dihydro-1H-pyrrole-1-carboxamide] | ≤ 50 |
| CN1CC[C@@H](N(C)C(=O)N2CC(c3cc(F)ccc3F)=C[C@@]2(CO)c2ccccc2)[C@@H](F)C1 [Compound 4-2, (2S)-4-(2,5-Difluorophenyl)-N-[(3S,4R)-3-fluoro-1-methylpiperidin-4-yl]-2-(hydroxymethyl)-N-methyl-2-phenyl-2,5-dihydro-1H-pyrrole-1-carboxamide] | ≤ 50 |
| CN(C(=O)N1CC(c2cc(F)ccc2F)=C[C@@]1(CO)c1ccccc1)[C@@H]1CCNC[C@@H]1F [Compound 12-1, (2S)-4-(2,5-Difluorophenyl)-N-[(3S,4R)-3-fluoropiperidin-4-yl]-2-(hydroxymethyl)-N-methyl-2-phenyl-2,5-dihydro-1H-pyrrole-1-carboxamide] | ≤ 50 |
| CN1CC[C@@H](N(C)C(=O)N2CC(c3cc(F)ccc3F)=C[C@H]2c2ccccc2)[C@H](F)C1 [Compound 7-3, (2S)-4-(2,5-Difluorophenyl)-N-[(3R,4R)-3-fluoro-1-methylpiperidin-4-yl]-N-methyl-2-phenyl-2,5-dihydro-1H-pyrrole-1-carboxamide] | ≤ 50 |
| CN(C(=O)N1CC(c2cc(F)ccc2F)=C[C@@]1(CO)c1ccccc1)[C@@H]1CCNC[C@H]1F [Compound 12-2, (2S)-4-(2,5-Difluorophenyl)-N-[(3R,4R)-3-fluoropiperidin-4-yl]-2-(hydroxymethyl)-N-methyl-2-phenyl-2,5-dihydro-1H-pyrrole-1-carboxamide] | ≤ 50 |
| CN1CC[C@@H](N(C)C(=O)N2CC(c3cc(F)ccc3F)=C[C@@]2(CO)c2ccccc2)[C@H](F)C1 (single isomer, unassigned) [Compound 5-3] | ≤ 50 |
| CC(C)N1CC[C@H](N(C)C(=O)N2CC(c3cc(F)ccc3F)=C[C@@]2(CO)c2ccccc2)[C@H](F)C1 [Compound 11-1, (2S)-4-(2,5-Difluorophenyl)-N-[(3R,4S)-3-fluoro-1-isopropylpiperidin-4-yl]-2-(hydroxymethyl)-N-methyl-2-phenyl-2,5-dihydro-1H-pyrrole-1-carboxamide] | ≤ 50 |
| CN1CC[C@H](N(C)C(=O)N2CC(c3cc(F)ccc3F)=C[C@@]2(CO)c2ccccc2)[C@H](F)C1 [Compound 3-1, (2S)-4-(2,5-Difluorophenyl)-N-[(3R,4S)-3-fluoro-1-methylpiperidin-4-yl]-2-(hydroxymethyl)-N-methyl-2-phenyl-2,5-dihydro-1H-pyrrole-1-carboxamide] | ≤ 50 |
| CN1CC[C@H](N(C)C(=O)N2CC(c3cc(F)ccc3F)=C[C@H]2c2ccccc2)[C@H](F)C1 [Compound 7-1, (2S)-4-(2,5-Difluorophenyl)-N-[(3R,4S)-3-fluoro-1-methylpiperidin-4-yl]-N-methyl-2-phenyl-2,5-dihydro-1H-pyrrole-1-carboxamide] | ≤ 50 |
| CN(C(=O)N1CC(c2cc(F)ccc2F)=C[C@@]1(CO)c1ccccc1)[C@H]1CCNC[C@@H]1F [Compound 12-3, (2S)-4-(2,5-Difluorophenyl)-N-[(3S,4S)-3-fluoropiperidin-4-yl]-2-(hydroxymethyl)-N-methyl-2-phenyl-2,5-dihydro-1H-pyrrole-1-carboxamide] | ≤ 50 |
